Among the test systems are HL-60; SF-295; OVCAR-3; 786-0; UACC-257; UO-31; OVCAR-4; SF-539; OVCAR-8; U-251; A549; CCRF-CEM; TK-10; MOLT-4; HT-29; UACC-62; HOP-62; HCT-116; HOP-92.
What all share (assay): NCI-60 cell line screen, 48 h

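48-hour exposure; five concentrations; linearly interpolated endpoints. At the GI50, growth is halved.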 Calls of active or inactive are those of the source. No stated cut-off is given here; in the data, active = GI50 up to about 1.1 µM and inactive = higher.

Consider `CCOC(=O)c1ccc(/N=N\c2ccc(N(CCC#N)CCC#N)cc2C)cc1`, for which the GI50 with HL-60 is > 100 µM (inactive); in the assay with SF-295, > 100 µM (inactive); with OVCAR-3, > 100 µM (inactive); with 786-0, 35.6 µM (inactive); in the assay on UACC-257 it was > 100 µM (inactive); in the assay on UO-31, > 100 µM (inactive). In addition, the GI50 in the assay on OVCAR-4 is > 100 µM (inactive); in the assay on SF-539 it was 72.9 µM (inactive); in the assay with OVCAR-8, > 100 µM (inactive); in the assay with U-251, > 100 µM (inactive); with A549, > 100 µM (inactive); in the assay with CCRF-CEM, > 100 µM (inactive). The GI50 with TK-10, with MOLT-4, in the assay with HT-29, in the assay with UACC-62 and with HOP-62 was > 100 µM (inactive) in each case.
Regarding `O=C1C(Cl)=C(N[C@@H](Cc2ccccc2)C(=O)OCc2ccccc2)C(=O)c2c(O)ccc(O)c21`, the GI50 is 2.07 µM (inactive) in the assay with HL-60; 5.66 µM (inactive) in the assay on SF-295; 2.45 µM (inactive) with OVCAR-3; 3.11 µM (inactive) in the assay on 786-0; > 10 µM (inactive) with UACC-257; 3.31 µM (inactive) in the assay on OVCAR-4. The GI50 with SF-539 is 2.42 µM (inactive); in the assay with OVCAR-8 it was 3.73 µM (inactive); in the assay on U-251 it was 3.01 µM (inactive); in the assay with A549, 3.47 µM (inactive); in the assay on CCRF-CEM it was 0.485 µM (active); in the assay with TK-10 it was > 10 µM (inactive). Further, the GI50 in the assay with HCT-116 was 1.65 µM (inactive); in the assay with HT-29 it was 4 µM (inactive); with UACC-62 it was 2.96 µM (inactive); in the assay on HOP-92, 6.3 µM (inactive); in the assay on HOP-62 it was 3.52 µM (inactive).
For the compound `CC1=NN(c2ccccc2)C(=O)C1/N=N/c1ccc(Br)c(C)c1` (stereo not drawn), the GI50 in the assay with HL-60, in the assay on SF-295, in the assay with OVCAR-3, with 786-0, with UACC-257 and in the assay with OVCAR-4 was > 100 µM (inactive) in each case. The GI50 was > 100 µM (inactive) in the assay on SF-539; > 100 µM (inactive) in the assay with OVCAR-8; > 100 µM (inactive) with U-251; > 100 µM (inactive) with A549; 55.7 µM (inactive) with CCRF-CEM; > 100 µM (inactive) with TK-10. For the same compound, the GI50 in the assay on MOLT-4 is 71.3 µM (inactive); in the assay on HCT-116, > 100 µM (inactive); in the assay with HT-29, > 100 µM (inactive); in the assay on UACC-62, > 100 µM (inactive); with HOP-92, > 100 µM (inactive); with HOP-62, > 100 µM (inactive).
`CCCC1C(=O)CCc2c(OC)ccc(OC)c21` (stereo not drawn): the GI50 with HL-60 was 73.8 µM (inactive); in the assay on SF-295, > 100 µM (inactive); in the assay on OVCAR-3, 73.6 µM (inactive); in the assay with 786-0, > 100 µM (inactive); in the assay with UACC-257, > 100 µM (inactive); in the assay on UO-31 it was 17.1 µM (inactive). Further, the GI50 with OVCAR-4 is > 100 µM (inactive); with SF-539 it was > 100 µM (inactive); in the assay on OVCAR-8 it was 92.7 µM (inactive); in the assay with U-251 it was > 100 µM (inactive); with A549, > 100 µM (inactive); in the assay on CCRF-CEM, 72.3 µM (inactive). For the same compound, the GI50 in the assay with TK-10 is > 100 µM (inactive); in the assay with MOLT-4, 49.1 µM (inactive); in the assay with HCT-116, 51.9 µM (inactive); with HT-29, > 100 µM (inactive); in the assay on UACC-62, > 100 µM (inactive); in the assay with HOP-62, > 100 µM (inactive).
Turning to `COc1cc(OC)c(C/C=C/c2ccccc2)cc1O`, the GI50 was 19.3 µM (inactive) in the assay on HL-60; 14.7 µM (inactive) with OVCAR-3; 18.2 µM (inactive) in the assay with 786-0; 23.6 µM (inactive) with UACC-257; 14.7 µM (inactive) in the assay on UO-31; 14 µM (inactive) in the assay with OVCAR-4. The GI50 in the assay on SF-539 is 16.2 µM (inactive); in the assay with OVCAR-8, 16.1 µM (inactive); in the assay with U-251, 16.7 µM (inactive); in the assay on A549 it was 19.4 µM (inactive); in the assay on CCRF-CEM, 22.1 µM (inactive); in the assay with TK-10, 16.4 µM (inactive). In addition, the GI50 in the assay on MOLT-4 is 11.8 µM (inactive); with HCT-116 it was 16.4 µM (inactive); with HT-29 it was 17.7 µM (inactive); in the assay on UACC-62, 15.5 µM (inactive); in the assay on HOP-92 it was 13.6 µM (inactive).
Consider `NC1=NCCC1(c1ccccc1)c1ccccn1` (stereo not drawn), for which the GI50 in the assay on HL-60, in the assay with SF-295, with OVCAR-3, with 786-0, with UACC-257 and in the assay on OVCAR-4 was > 100 µM (inactive) in each case. In addition, the GI50 in the assay on SF-539, in the assay on OVCAR-8, with U-251, in the assay with A549, in the assay with CCRF-CEM and with TK-10 was > 100 µM (inactive) in each case. Moreover, the GI50 in the assay on MOLT-4, in the assay with HCT-116, with HT-29, in the assay with UACC-62, in the assay on HOP-92 and with HOP-62 was > 100 µM (inactive) in each case.
Consider `Cc1cccc(NC2=NC(=O)C(CC(=O)Nc3ccc(Cl)cc3C)S2)c1` (stereo not drawn), for which the GI50 with HL-60, in the assay on SF-295, with OVCAR-3, in the assay on 786-0, with UACC-257 and in the assay on UO-31 was > 100 µM (inactive) in each case. Moreover, the GI50 in the assay on OVCAR-4, in the assay on SF-539, in the assay on OVCAR-8, in the assay with A549, with CCRF-CEM and in the assay on TK-10 was > 100 µM (inactive) in each case. Besides, the GI50 in the assay on MOLT-4, in the assay on HT-29, in the assay with UACC-62 and in the assay on HOP-62 was > 100 µM (inactive) in each case.
Take `CC1(C)O[C@@H]2[C@@H](COC(C)(C)O[C@H]2C2SCCCS2)O1`: the GI50 with SF-295, in the assay on OVCAR-3, in the assay on 786-0, with UO-31, with OVCAR-4 and with SF-539 was > 100 µM (inactive) in each case. In addition, the GI50 in the assay with OVCAR-8, with U-251, with A549, in the assay on MOLT-4, with HCT-116 and in the assay with HT-29 was > 100 µM (inactive) throughout. Also, the GI50 in the assay on UACC-62 is > 100 µM (inactive); with HOP-92, 92.7 µM (inactive); in the assay with HOP-62 it was > 100 µM (inactive).
For `CC1=C(c2cc(C(=O)Nc3ccc(Cl)cc3)nc(S)n2)Sc2ccccc2N1`, the GI50 in the assay with HL-60, with SF-295, in the assay on OVCAR-3, in the assay with 786-0, with UACC-257 and in the assay with UO-31 was > 100 µM (inactive) throughout. Further, the GI50 in the assay with OVCAR-4, with SF-539, with OVCAR-8, with U-251, in the assay on A549 and in the assay with CCRF-CEM was > 100 µM (inactive) in each case. Further, the GI50 in the assay on TK-10, with HCT-116, with HT-29, in the assay on UACC-62, in the assay with HOP-92 and in the assay on HOP-62 was > 100 µM (inactive) in each case.
Consider `CN(C)/N=N/c1nc2c(c(=O)n(C)c(=O)n2C)n1CC(O)CO` (stereo not drawn), for which the GI50 in the assay on HL-60, with SF-295, in the assay with OVCAR-3, in the assay on 786-0, with UACC-257 and in the assay on UO-31 was > 100 µM (inactive) each time. The GI50 in the assay on OVCAR-4, in the assay with OVCAR-8, in the assay on U-251, in the assay with A549, with CCRF-CEM and in the assay with TK-10 was > 100 µM (inactive) each time. Moreover, the GI50 with MOLT-4, in the assay with HCT-116, with HT-29, in the assay with UACC-62 and in the assay with HOP-62 was > 100 µM (inactive) each time.
Take `CCOC(=O)CSC1NC(C(=O)OC)CC1OC` (stereo not drawn): the GI50 in the assay on SF-295, with OVCAR-3, in the assay with 786-0, in the assay with UACC-257, with UO-31 and with OVCAR-4 was > 100 µM (inactive) in each case. Also, the GI50 in the assay on OVCAR-8 is > 100 µM (inactive); with U-251, > 100 µM (inactive); in the assay on A549, > 100 µM (inactive); in the assay on CCRF-CEM it was 75 µM (inactive); in the assay with TK-10, > 100 µM (inactive); with MOLT-4, > 100 µM (inactive). Besides, the GI50 with HCT-116, in the assay with HT-29, in the assay with UACC-62, in the assay with HOP-92 and with HOP-62 was > 100 µM (inactive) throughout.

The record behind these values is ChEMBL document CHEMBL1201862, “PubChem BioAssay data set” (2004).
